According to patent US20210121438A1, “METHODS FOR TREATING OR PREVENTING CONFORMATION DISEASES AND METHODS FOR DRUG SCREENING” (GARAGE BRAIN SCIENCE CO., LTD, priority 2018, published 2021):

What was measured:
[1] = molecular target: T1, full-length TDP-43 recombinant protein (Homo sapiens, UniProt Q13148); assay: In vitro analysis of TDP-43 fiber formation (negative staining electron microscopy); assay type: biochemical
T1 construct: Three-micromolar full-length TDP-43 recombinant protein (GenWay); purchased GenWay
T1 sequence (Q13148 whole entry): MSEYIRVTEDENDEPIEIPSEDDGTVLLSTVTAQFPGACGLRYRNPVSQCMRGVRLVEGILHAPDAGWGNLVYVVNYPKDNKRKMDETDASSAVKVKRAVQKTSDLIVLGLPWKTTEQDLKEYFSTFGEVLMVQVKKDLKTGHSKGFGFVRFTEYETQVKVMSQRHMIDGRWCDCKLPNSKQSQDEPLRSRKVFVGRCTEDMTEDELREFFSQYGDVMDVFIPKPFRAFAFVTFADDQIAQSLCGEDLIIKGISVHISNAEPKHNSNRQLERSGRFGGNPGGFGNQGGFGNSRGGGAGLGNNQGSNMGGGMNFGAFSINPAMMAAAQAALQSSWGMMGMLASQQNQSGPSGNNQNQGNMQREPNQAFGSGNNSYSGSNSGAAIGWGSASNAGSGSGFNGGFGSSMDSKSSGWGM

[2] = tested on: GFP-TDP-43-IIPLD inclusion-expressing 293T cells; assay: TDP-43-IIPLD misfolded aggregates in transfected 293T cells (microscopy); assay type: cell-based
Method: Cell Culture and Drug Treatment: 293T cells were used throughout the experimental studies. 293T cells were grown in Dulbecco's modified Eagle's medium (DMEM)/F12, which was supplemented with 10% fetal bovine serum, 1% penicillin/streptomycin and 1% L-glutamate. Primary cultures of rat hippocampal neurons were prepared from embryonic day 17 rat embryos as previously described by (Wang et al, TDP-43, the signature protein of FTLD-U, is a neuronal activity-responsive factor. J. Neurochem. 105, 79T-806 (2008)). All procedures for handling the rat were carried out in accordance with the guidelines approved by the Institutional Animal Care and Utilization Committee, Academia Sinica. Hippocampal cells were plated on poly-1-lysine-coated coverslides at low density (10,000 cells per cm2) and cultured in the neurobasal medium/B27 (Invitrogen). The 293T cells were transfected using the calcium phosphate protocol according to the manufacturer's instructions and as previously described by Wang et al. (Wang et al., ProcNatlAcadSci USA. 99, 13583-13588 (2002). All of the plasmid constructs were described in Wang et al., Nature Communication, 2012). 293T cells (1×10^5) were seeded in each well of a six-well plate and incubated overnight in a 37° C. incubator with 5% CO2. To determine the effects of off-pathway stabilizers on the reduction of pathological-like aggregates, the cells were treated with baicalein and EGCG for 12, 24, or 48 h with the indicated concentrations (25 or 50 μM).
GFP-TDP-43 pathological-like (GFP-TDP-43-IIPLD) inclusion-expressing 293T cells were treated with or without 50 μM baicalein for 12 h following microscopic analysis and Western blotting validation. […] (FIG. 2c).

[3] = tested on: TDP-43-mediated CFTR exon 9 skipping; assay: Alternative splicing assay (in vivo splicing, CFTR minigene); assay type: cell-based
Method: Alternative Splicing Assay: TDP-43-mediated CFTR exon 9 skipping assays were performed as previously described. Briefly, cells were cotransfected with TDP-43 plasmid, hCF-(TG)13(T)5 minigenes and the indicated plasmids, including VCP/p97 wt, VCP/p97 QQ, HSPB1, lamin A or progeria, or HSPB1 siRNA. Total RNA of transfectanted cells was isolated by TRIzol reagent (Invitrogen), and RT-PCR was carried out by Superscript III (Invitrogen) using specific primers to amplify exons 8-10 of CFTR according to the manufacturer's protocol. The relative amounts of cDNA were validated on 1.3% agarose gels. […]

[4] = tested on: SMNA7 aggregates in 293T cells; assay: SMNA7 aggregate formation in 293T cells; assay type: cell-based
From the text: (§1) We investigate whether baicalein can act as a pharmacological chaperone to refold misfolded SMNA7 into a functional prion-like domain, as shown in FIG. 8 (FIG. 10a). […] PFN1 is a known SMN interactor in the cytosol. We further examined whether baicalein attenuated the degradation of the SMNA7 protein. […] We found baicalein increased the length of axons from NSC34 cells expressing SMNA7 by approximately 2-fold (FIG. 10g).

SMNA7-expressing cells = assay: Cell viability assay of SMNA7-expressing cells; assay type: cell-based; conditions: 50 μM baicalein
From the text: as §1

SMNA7 cells = assay: Morphology (neurite-like structure) of SMNA7 cells; assay type: cell-based; conditions: baicalein
From the text: as §1

PFN1 and SMNA7 = molecular target: T2, PFN1 and SMNA7 (Homo sapiens, UniProt Q16637); assay: Co-immunoprecipitation of PFN1 and SMNA7; assay type: cell-based; conditions: in the presence of baicalein
T2 construct: expressed in transfected cells
T2 sequence (Q16637 1-282 isoform Q16637-3): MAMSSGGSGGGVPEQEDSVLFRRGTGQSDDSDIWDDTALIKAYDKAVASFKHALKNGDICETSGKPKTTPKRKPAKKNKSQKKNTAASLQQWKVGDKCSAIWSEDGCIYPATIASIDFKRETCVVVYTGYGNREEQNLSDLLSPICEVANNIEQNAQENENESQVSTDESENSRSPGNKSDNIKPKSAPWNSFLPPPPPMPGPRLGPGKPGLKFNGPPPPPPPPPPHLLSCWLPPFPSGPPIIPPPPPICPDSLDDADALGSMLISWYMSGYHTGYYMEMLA
From the text: as §1

SMNA7 protein = molecular target: T3, SMNA7 protein (Homo sapiens, UniProt Q16637); assay: SMNA7 protein degradation (Western blotting); assay type: cell-based; conditions: baicalein
T3 construct: expressed in transfected cells
T3 sequence (Q16637 1-282 isoform Q16637-3): as above
From the text: as §1

[5] = tested on: NSC34 cells expressing SMNA7; assay: Axon/neurite length of NSC34 motor neurons expressing SMNA7; assay type: cell-based; conditions: NSC34 cells expressing SMNA7, baicalein 50 μM
From the text: as §1
We increased the amount of functional prion-like domains by overexpressing the TDP-43 prion-like domain (TDP-43-PLD) in NSC34 motor neuron cells expressing the SMNA7 proteins to confirm that the reduced level of the functional prion-like conformer caused axon degeneration in SMNΔ7-expressing neurons. The TDP-43-PLD is expected to adopt a common, structurally similar β sheet to compensate for the prion-like function of SMN through hetero-polymerization. […] Thus, the level of the prion-like conformer is critical for motor neuron survival, and other functionally unrelated prion-like proteins can compensate for the function of the defective protein.

[6] = tested on: p53 aggregates in 293T cells; assay: p53 aggregates in 293T cells / p53 strains (immunofluorescence with p53 antibody); assay type: cell-based; conditions: 293T cells
Method: Immunohistochemistry: Fluorescence staining was performed as described previously (Wang et al., 2012). Cells were transfected with or without plasmids or siRNAs and grown for 24 to 48 hr. Cells were fixed with 3.7% paraformaldehyde in PBS at RT for 15 min and then permeabilized with 0.1% Triton X-100. The fixed cells were incubated with primary antibodies at RT for 2 hr followed by incubation with Cy2- or Cy3-labeled secondary antibodies (Molecular Probes). Slides were mounted using Vectashield DAPI H-1200 (Vector). Cellular fluorescence images were collected using an LSM710 META laser-scanning confocal microscope (Zeiss).
We observed a striking degree of heterogeneity among p53 aggregates in the cytosol of 293T cells by immunofluorescence with a p53 antibody, including long fibers (5-10 μm), short fibers (1.6-3.2 μm) and punctate aggregates (0.5-1 μm in diameter) (FIG. 16a, arrows). The length of the p53 fibers and p53 aggregates were analyzed (FIG. 16b). […] To determine whether these heterogeneous p53 amyloid patterns are inherited or are random conversions, we subcultured and isolated single colonies from heterogeneous pools of cells. […] We obtained four phenotypes shown in FIG. 16a, including long and short fibers, puncta, and diffuse nuclear staining, and these phenotypes were stably propagated (FIG. 16e). We termed these p53 phenotypes of the isolated strains as follows: p53 [L] (Long fibers), p53 [S] (Short fibers), p53 [P] (Puncta) and p53-NVA (No Visible Aggregates).
Additionally, we treated 293T cells with an Aβ amyloid disassembling agent, baicalein, following immunofluorescence staining with anti-p53 antibodies.

Question: Which results are given for `O=c1cc(-c2ccccc2)oc2cc(O)c(O)c(O)c12` [baicalein]?
Answer: length of baicalein-inducing TDP-43 polymers ([1]; 3 μM TDP-43 with 3 μM baicalein, RT, agitation, 30-90 min, fibers without compound 3 to 10 μm): 0.15-0.9 μm; remodeling of TDP-43 fibers, oligomers or natively unfolded monomers ([1]; equimolar baicalein, time-dependent): efficiently remodeled into ordered TDP-43 polymers; TDP-43-IIPLD aggregates, statistical analysis of dose dependence [2]: dosage-dependent reduction of TDP-43-IIPLD aggregates; assembly of TDP-43-IIPLD proteinaceous nucleating particles ([2]; 50 μM): inhibited the assembly of TDP-43-IIPLD proteinaceous nucleating particles; CFTR exon 9 skipping ([3]; VCP/p97-QQ-expressing cells): increased CFTR exon 9 skipping; failure of TDP-43 to promote CFTR exon 9 skipping ([3]; cells co-transfected with TDP-43 and VCP/p97 R155H mutant): corrected; dysfunction caused by FTLD/ALS-linked sporadic mutation R361S of TDP-43 ([3]; cells expressing VCP/p97-QQ): rescued dysfunction; dysfunction of proline substitution mutant GFP-TDP-43-Q303P ([3]; cells expressing VCP/p97-QQ): rescued dysfunction; TDP-43 dysfunction (CFTR exon 9 skipping) ([3]; cells expressing progeria): rescued TDP-43 dysfunction caused by progeria in a dose-dependent manner; restoring ratio of exon skipping ([3]; cells expressing progeria, baicalein 10 μm): 1.31; restoring ratio of exon skipping ([3]; cells expressing progeria, baicalein 50 μm): 1.91; TDP-43-mediated CFTR exon 9 skipping ([3]; cells treated with only baicalein, TDP-43 overexpressed): enhanced ability to promote the TDP-43-mediated CFTR exon 9 skipping in a dose-dependent manner; exon skipping of CFTR ([3]; without co-overexpressing TDP-43 proteins): no effect; formation of SMNA7 aggregates [4]: decreased the formation of SMNA7 aggregates in 293T cells in a dose-dependent manner; increase of viability of SMNA7 cells (SMNA7-expressing cells): approximately 2 fold; neurite-like structure of SMNA7 cells (SMNA7 cells): increased the neurite-like structure of SMNA7 cells; interactions between PFN1 and SMNA7 (PFN1 and SMNA7): significantly increased; SMNA7 degradation (SMNA7 protein): significantly reduced SMNA7 degradation; increase of length of axons [5]: approximately 2 fold; p53 misfolded aggregates ([6]; 25 μM baicalein): reduced p53 misfolded aggregates; spontaneous aggregation of p53 ([6]; baicalein): suppressed the spontaneous aggregation of p53
